Source: PubChem BioAssay AID248 (DTP/NCI, 2004)
Where “and” joins values, the source holds several entries; their conditions need not be identical. Equal entries are not always repeated. Toxic doses and inconclusive results are not listed. Cut-off read from the data, not from the text of the source: active = T/C of 150% or more; inactive = T/C below 125%.

Tested on: L1210 leukemia ip in BDF1 mice, survival T/C
Assay: NCI In Vivo Anticancer Drug Screen. Data for tumor model L1210 Leukemia (intraperitoneal) in B6D2F1 (BDF1) mice
Details: endpoint: mean survival time, higher = longer survival
Summary of the method: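 Tumor cells were implanted, animals were treated, and survival was followed. The result divides the treated measurement by the vehicle-control measurement.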

[1] = dose: 100.0 mg/kg/injection, schedule: Q04DX003 (ip), vehicle: Klucel (hydroxypropylcellulose) (HPC)
[2] = dose: 200.0 mg/kg/injection, schedule: Q04DX003 (ip), vehicle: Klucel (hydroxypropylcellulose) (HPC)
[3] = dose: 400.0 mg/kg/injection, schedule: Q04DX003 (ip), vehicle: Klucel (hydroxypropylcellulose) (HPC)
[4] = dose: 100.0 mg/kg/injection, schedule: Q04DX002 (ip), vehicle: Klucel (hydroxypropylcellulose) (HPC)
[5] = dose: 200.0 mg/kg/injection, schedule: Q04DX002 (ip), vehicle: Klucel (hydroxypropylcellulose) (HPC)
[6] = dose: 400.0 mg/kg/injection, schedule: Q04DX002 (ip), vehicle: Klucel (hydroxypropylcellulose) (HPC)
[7] = dose: 100.0 mg/kg/injection, schedule: Q01DX009 (ip), vehicle: Klucel (hydroxypropylcellulose) (HPC)
[8] = dose: 200.0 mg/kg/injection, schedule: Q01DX009 (ip), vehicle: Klucel (hydroxypropylcellulose) (HPC)
[9] = dose: 400.0 mg/kg/injection, schedule: Q01DX009 (ip), vehicle: Klucel (hydroxypropylcellulose) (HPC)
[10] = dose: 50.0 mg/kg/injection, schedule: Q01DX009 (ip), vehicle: saline with Tween-80
[11] = dose: 100.0 mg/kg/injection, schedule: Q01DX009 (ip), vehicle: saline with Tween-80
[12] = dose: 100.0 mg/kg/injection, schedule: Q04DX003 (ip), vehicle: saline with Tween-80
[13] = dose: 100.0 mg/kg/injection, schedule: Q04DX003 (ip), vehicle: carboxymethylcellulose (CMC)
[14] = dose: 200.0 mg/kg/injection, schedule: Q04DX003 (ip), vehicle: carboxymethylcellulose (CMC)
[15] = dose: 200.0 mg/kg/injection, schedule: Q04DX003 (ip), vehicle: saline with Tween-80
[16] = dose: 400.0 mg/kg/injection, schedule: Q04DX003 (ip), vehicle: saline with Tween-80
[17] = dose: 100.0 mg/kg/injection, schedule: Q01DX001 (ip), vehicle: saline with Tween-80
[18] = dose: 200.0 mg/kg/injection, schedule: Q01DX001 (ip), vehicle: saline with Tween-80
[19] = dose: 400.0 mg/kg/injection, schedule: Q01DX001 (ip), vehicle: saline with Tween-80
[20] = dose: 200.0 mg/kg/injection, schedule: Q01DX009 (ip), vehicle: saline with Tween-80
[21] = dose: 400.0 mg/kg/injection, schedule: Q01DX009 (ip), vehicle: saline with Tween-80

Measured: T/C

CC(C)N(C(=O)Nc1cc([N+](=O)[O-])ccc1F)c1ccccc1
inactive: [1] 96 % of control | [2] 100 % of control | [3] 96 % of control

Nc1nc(SCC(=O)c2ccc(F)cc2)sc1C(=O)c1ccc(F)cc1
inactive: [4] 100 % of control | [5] 112 % of control | [6] 100 % of control

COC(=O)c1ccccc1NC(=O)Nc1cc(Cl)ccc1OC
inactive: [7] 89 % of control | [1] 106 % of control | [8] 103 % of control | [2] 90 % of control | [9] 107 % of control | [3] 95 % of control

Cc1ccc2nc3c(cc(F)c4ccccc43)c(C)c2c1
inactive: [10] 105 % of control | [11] 87 % of control

Brc1cccc[n+]1-c1cc(-[n+]2ccccc2Br)cc(-[n+]2ccccc2Br)c1
inactive: dose: 1.17 mg/kg/injection, schedule: Q01DX001 (ip), vehicle: other 95 % of control | dose: 2.34 mg/kg/injection, schedule: Q01DX001 (ip), vehicle: other 102 % of control | dose: 4.69 mg/kg/injection, schedule: Q01DX001 (ip), vehicle: other 101 % of control

CC1NC(=O)NC1=O (stereo not given)
inactive: [7] 103 % of control | [1] 98 % of control | [8] 95 % of control | [2] 98 % of control | [9] 100 % of control | [3] 101 % of control

O=C(COc1ccc(Cl)c(Cl)c1)Nc1ccc[n+](Cc2ccccc2S(=O)(=O)F)c1
inactive: [12] 96 % of control

NC(=O)CNC(=O)OCc1ccccc1
inactive: [7] 102 % of control | [1] 94 % of control | [8] 94 % of control | [2] 105 % of control | [9] 107 % of control | [3] 94 % of control

CCOC(=O)C1CC2(OCCO2)c2c(OC)ccc(Cl)c2C1C (stereo not given)
inactive: dose: 75.0 mg/kg/injection, schedule: Q01DX001 (ip), vehicle: saline 102 % of control | dose: 150.0 mg/kg/injection, schedule: Q01DX001 (ip), vehicle: saline 96 % of control | dose: 300.0 mg/kg/injection, schedule: Q01DX001 (ip), vehicle: saline 94 % of control

Cc1ccc(CSCc2ccc(C)cc2)cc1
inactive: [7] 100 % of control | [8] 96 % of control | [9] 92 % of control

CC(=O)N(c1ccccc1)c1nc(CCl)cs1
inactive: dose: 100.0 mg/kg/injection, schedule: Q01DX001 (ip), vehicle: carboxymethylcellulose (CMC) 100 % of control | dose: 100.0 mg/kg/injection, schedule: Q01DX009 (ip), vehicle: carboxymethylcellulose (CMC) 88 % of control | dose: 100.0 mg/kg/injection, schedule: Q04DX002 (ip), vehicle: carboxymethylcellulose (CMC) 97 % of control and 100 % of control | [13] 100 % of control | dose: 200.0 mg/kg/injection, schedule: Q01DX001 (ip), vehicle: carboxymethylcellulose (CMC) 108 % of control | dose: 200.0 mg/kg/injection, schedule: Q01DX009 (ip), vehicle: carboxymethylcellulose (CMC) 98 % of control and 89 % of control | dose: 200.0 mg/kg/injection, schedule: Q04DX002 (ip), vehicle: carboxymethylcellulose (CMC) 95 % of control and 103 % of control | [14] 102 % of control | dose: 400.0 mg/kg/injection, schedule: Q01DX001 (ip), vehicle: carboxymethylcellulose (CMC) 93 % of control | dose: 400.0 mg/kg/injection, schedule: Q01DX009 (ip), vehicle: carboxymethylcellulose (CMC) 98 % of control and 103 % of control | dose: 400.0 mg/kg/injection, schedule: Q04DX002 (ip), vehicle: carboxymethylcellulose (CMC) 100 % of control and 102 % of control | dose: 400.0 mg/kg/injection, schedule: Q04DX003 (ip), vehicle: carboxymethylcellulose (CMC) 104 % of control

CCOC(=O)CNc1cccc(F)c1
inactive: [4] 101 % of control | [5] 108 % of control | [6] 105 % of control

CC(C)(CCl)COS(=O)(=O)c1ccc(Br)cc1
inactive: [10] 90 % of control | [11] 90 % of control

O=C(O)C(Cc1cccs1)c1ccccc1 (stereo not given)
inactive: dose: 50.0 mg/kg/injection, schedule: Q04DX003 (ip), vehicle: carboxymethylcellulose (CMC) 98 % of control | [13] 106 % of control | [14] 106 % of control

CC(C)N(C(=O)Nc1cccc(OC(=O)N(C)C)c1)C(C)C
inactive: [12] 94 % of control | [15] 88 % of control | [16] 96 % of control

CCCNC(=O)C1C2CCC(C2)C1C(=O)NCCC (stereo not given)
inactive: [12] 96 % of control | [15] 96 % of control | [16] 96 % of control

CCCCCCCCCCCCC1C2CCCCC2CC2CCCCC21 (stereo not given)
inactive: [17] 94 % of control | [18] 94 % of control | [19] 96 % of control

COC(=O)C1=CC2c3ccccc3C1c1ccccc12
inactive: [11] 89 % of control | [20] 105 % of control | [21] 98 % of control

CCC(=O)n1cc2ccc([N+](=O)[O-])cc2n1
inactive: [4] 112 % of control | [5] 104 % of control | [6] 101 % of control

N#[N+]c1c([O-])[nH]c(=O)[nH]c1=O
inactive: dose: 50.0 mg/kg/injection, schedule: Q01DX009 (ip), vehicle: Klucel (hydroxypropylcellulose) (HPC) 95 % of control | [7] 107 % of control | [8] 88 % of control

CCOC(=O)Nc1cc(NCC(O)CN(C)c2ccc(Cl)cc2)c([N+](=O)[O-])c(N)n1 (stereo not given)
inactive: [17] 92 % of control | [18] 86 % of control | [19] 89 % of control

CCCCNC(=S)NCCCN(C)C
inactive: [1] 101 % of control | [2] 98 % of control

O=c1oc(-c2ccccc2)nc2cc(Cl)ccc12
inactive: dose: 25.0 mg/kg/injection, schedule: Q04DX003 (ip), vehicle: saline with Tween-80 104 % of control | dose: 50.0 mg/kg/injection, schedule: Q04DX003 (ip), vehicle: saline with Tween-80 92 % of control | [11] 90 % of control | [12] 96 % of control and 103 % of control and 88 % of control | [20] 87 % of control | [15] 98 % of control | [21] 92 % of control | [16] 90 % of control

O=C1CC2(CCCCC2)C(=O)N1N1CCCCCC1
inactive: dose: 100.0 mg/kg/injection, schedule: Q01DX001 (ip), vehicle: Klucel (hydroxypropylcellulose) (HPC) 102 % of control | dose: 200.0 mg/kg/injection, schedule: Q01DX001 (ip), vehicle: Klucel (hydroxypropylcellulose) (HPC) 100 % of control | dose: 400.0 mg/kg/injection, schedule: Q01DX001 (ip), vehicle: Klucel (hydroxypropylcellulose) (HPC) 97 % of control

C=C(Br)CNC(=O)Nc1cccc2c1CCCC2
inactive: [11] 94 % of control | [12] 86 % of control | [20] 97 % of control | [15] 86 % of control | [21] 92 % of control | [16] 88 % of control

O=C(O)c1cc(Br)ccc1O
inactive: [4] 98 % of control | [5] 98 % of control | [6] 102 % of control

Cc1cc(=O)n2c3c(ccc([N+](=O)[O-])c13)OC2
inactive: dose: 100.0 mg/kg/injection, schedule: Q01DX001 (ip), vehicle: saline 104 % of control | dose: 200.0 mg/kg/injection, schedule: Q01DX001 (ip), vehicle: saline 99 % of control | dose: 400.0 mg/kg/injection, schedule: Q01DX001 (ip), vehicle: saline 95 % of control

CC(=O)Oc1ccc(N)cc1OC(C)=O
inactive: dose: 150.0 mg/kg/injection, schedule: Q01DX001 (ip), vehicle: steriod suspending solution 95 % of control

CC(=O)N(C)c1ccc(S(=O)(=O)Cl)cc1
inactive: [11] 101 % of control | [20] 95 % of control
